Experimental data from patent publication US12065434B2, “Metabolites of GLP1R agonists” (Pfizer Inc., priority 2020, dated 2024).

Tests used:
[1] = system: human co-cultured hepatocytes (Hepatopack); assay: In vitro metabolism of Compound 2 in human micropatterned co-cultured hepatocytes (Hepatopack); assay type: in vitro ADME; parameters: key to Relative abundance of metabolite of Compound 2, Hepatopack: ND Not detected.; trace: Trace: observed by HPLC/MS measurements only.; + Minor as assessed by HPLC/UV measurements; ++ moderate as assessed by HPLC/UV measurements; +++ major as assessed by HPLC/UV measurements.; * m/z 593 and m/z 505 co-eluted in rabbit hepatocytes.; ** m/z 591 c and m/z 593 were merged in human hepatocytes and Hepatopack.; *** m/z 607 and m/z 751 b were merged in rabbit hepatocytes
From the text: Micro-patterned co-cultured (MPCC) hepatocyte 24-well plates containing human donors (16 wells each) were provided by Ascendance Biotechnology (formerly Hepregen Corp. (Medford, MA). [see Wang W W W, Khetani S R, Krzyzewski S, et al. Assessment of a Micropatterned Hepatocyte Coculture System to Generate Major Human Excretory and Circulating Drug Metabolites. Drug Metab Dispos 2010; 38(10):1900-5.] The MPCCs were created at Ascendance Biotechnology and maintained in serum containing medium for 5-6 days to allow for stabilization of the co-cultures prior to shipment. A mixed-gender cryopreserved pool of 10 human donors (X008001-P; lot YFA) was used to seed the plates and was purchased from BioreclamationIVT (Westbury, NY). MPCC hepatocytes are plated with fibroblasts in a 1:3 ratio with ˜25,000 hepatocytes/well in a 24-well plate. 24-Well MPCC plates were shipped to Pfizer, fresh medium (400 μL/well) was applied and cultures were kept at 37° C. with […] and 95% relative humidity for two days. Micropatterned co-cultures containing pooled hepatocytes were allowed 7 days to fully stabilize with respect to liver-specific functions. […] At respective time points (0, 2, and 7 days), the culture medium was removed and mixed with 4 volumes of ACN, then stored frozen at −40° C. until samples could be analyzed. Samples were subsequently processed by the addition of 2.5 mL of 1:1 ACN:MeOH containing 0.1% formic acid. After vortexing, the samples were centrifuged at 1900×g for 5 min, then the supernatant was transferred to 15 mL conical tubes and evaporated under N2 using a Turbovap set at 37° C. The residues were reconstituted in mobile phase (5:95 v:v ACN:0.1% aqueous formic acid) prior to analysis by HPLC/UV/MS^n.
(§1) Samples were analyzed by HPLC/UV/MS^n using a Thermo Orbitrap Elite mass spectrometer in conjunction with a Thermo Open Accela UHPLC system. A 3.0×150 mm, 2.5 μm Acquity CSH C18 HPLC column (Waters) was heated to 45° C. for separation of analytes. The mobile phase was a gradient of A): water containing 0.1% formic acid, and B): acetonitrile. The flow rate was 450 μL/min, and the following gradient program was utilized: […]
UV absorbance was monitored with a photo-diode array detector from 220-450 nm. The mass spectrometer was operated in positive-ion mode with a HESI ion source at a potential of 3.0 kV, and capillary and source heater temperatures of 380 and 300° C., respectively. Sheath, auxiliary, and sweep gas flows were set to 45, 10, and 2 units, respectively. Full scan mass spectra were acquired over the range 120-1200 m/z at a resolving power of 30,000 (specified at m/z 400). […]

[2] = system: rabbit hepatocytes; assay: In vitro metabolism of Compound 2 in rabbit cryopreserved hepatocytes; assay type: in vitro ADME; parameters: key to Relative abundance of metabolite of Compound 2, Rabbit: ND Not detected.; trace: Trace: observed by HPLC/MS measurements only.; + Minor as assessed by HPLC/UV measurements; ++ moderate as assessed by HPLC/UV measurements; +++ major as assessed by HPLC/UV measurements.; * m/z 593 and m/z 505 co-eluted in rabbit hepatocytes.; ** m/z 591 c and m/z 593 were merged in human hepatocytes and Hepatopack.; *** m/z 607 and m/z 751 b were merged in rabbit hepatocytes; conditions: for metabolite of Compound 2 observed in rabbit hepatocyte incubations: 10 μM Compound 2, 7.5×10^5 cells/mL, 1 and 4 hrs composite
Description: (§2) Male CD-1 mouse hepatocytes (lot YHL), male Wistar-Han rat hepatocytes (Celsius; product number: M000065; lot: SLA), female New Zealand rabbit hepatocytes (lot 1510147), male cryopreserved cynomolgus monkey hepatocytes (Celsius; product number: M00305; lot: DNB) and mixed-gender cryopreserved human hepatocytes (Bioreclamation; product number: S01988; lot: DCM) were obtained for the hepatocyte in-vitro assessments.
(§3) At time 0 hrs 550 μL aliquots were removed from incubations and quenched with 5 volumes of ACN containing 0.1% formic acid. At 1 and 4 hrs, 275 μL aliquots were removed and quenched as above; these were combined in the same tube to prepare a composite sample. For all hepatocyte experiments, samples were processed by centrifugation at 1900×g for 5 minutes, and then the supernatant was transferred to clean glass tubes and evaporated to dryness under a stream of N2 using a Turbovap at 37° C. Sample residues were reconstituted in mobile phase prior to analysis by HPLC/UV/MS^n.
as §1
(§4) UV absorbance was monitored with a photo-diode array detector from 220-450 nm. The mass spectrometer was operated in positive-ion mode with a HESI ion source at a potential of 3.0 kV, and capillary and source heater temperatures of 380 and 300° C., respectively. Sheath, auxiliary, and sweep gas flows were set to 45, 10, and 2 units, respectively. Full scan mass spectra were acquired over the range 120-1200 m/z at a resolving power of 30,000 (specified at m/z 400). Data-dependent MS^n spectra were acquired in an automated fashion at 15,000 resolving power using CID and HCD fragmentation with normalized collision energy settings of 28 and 65 V, respectively.
(§5) Metabolites were characterized by comparisons of mass spectral fragmentation patterns with that of a Compound 2 standard. All HPLC/UV/MS^n data were processed using Xcalibur v. 2.2, and integrated UV peak areas were subjected to weighted UV binning procedures utilizing an Excel template.

[3] = system: mouse hepatocytes; assay: In vitro metabolism of Compound 2 in mouse cryopreserved hepatocytes; assay type: in vitro ADME; parameters: key to Relative abundance of metabolite of Compound 2, Mouse: ND Not detected.; trace: Trace: observed by HPLC/MS measurements only.; + Minor as assessed by HPLC/UV measurements; ++ moderate as assessed by HPLC/UV measurements; +++ major as assessed by HPLC/UV measurements.; * m/z 593 and m/z 505 co-eluted in rabbit hepatocytes.; ** m/z 591 c and m/z 593 were merged in human hepatocytes and Hepatopack.; *** m/z 607 and m/z 751 b were merged in rabbit hepatocytes; conditions: for metabolite of Compound 2 observed in mouse hepatocyte incubations: 10 μM Compound 2, 7.5×10^5 cells/mL, 1 and 4 hrs composite
Description: as §2, §3, §1, §4, §5

[4] = biological target: T1, human GLP-1R (Homo sapiens, UniProt P43220, L260F); assay: CHO GLP-1R Clone C6 - Assay 2 (HTRF cAMP agonist assay, low receptor density); assay type: cell-based; conditions: CHO GLP-1R Clone C6 (low receptor density), arithmetic mean, relative to 1 μM GLP-1
T1 construct: expressed in transfected cells
T1 sequence (P43220 24-463 L260F): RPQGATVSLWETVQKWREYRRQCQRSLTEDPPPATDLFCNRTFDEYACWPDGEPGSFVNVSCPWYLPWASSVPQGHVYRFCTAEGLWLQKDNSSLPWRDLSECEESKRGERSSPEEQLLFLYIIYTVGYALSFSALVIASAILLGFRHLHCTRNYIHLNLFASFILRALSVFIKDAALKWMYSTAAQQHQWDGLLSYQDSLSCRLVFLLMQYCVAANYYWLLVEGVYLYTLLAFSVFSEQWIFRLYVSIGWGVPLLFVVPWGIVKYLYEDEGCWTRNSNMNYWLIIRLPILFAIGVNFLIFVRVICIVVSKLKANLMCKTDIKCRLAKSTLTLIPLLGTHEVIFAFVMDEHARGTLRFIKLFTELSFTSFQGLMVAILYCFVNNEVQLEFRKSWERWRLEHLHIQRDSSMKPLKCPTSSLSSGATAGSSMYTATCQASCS
Description: GLP-1R-mediated agonist activity was determined with a cell-based functional assay utilizing an HTRF (Homogeneous Time-Resolved Fluorescence) cAMP detection kit (cAMP HI Range Assay Kit; Cis Bio cat #62AM6PEJ) that measures cAMP levels in the cell. The method is a competitive immunoassay between native cAMP produced by the cells and exogenous cAMP labeled with the dye d2. The tracer binding is visualized by a mAb anti-cAMP labeled with Cryptate. The specific signal (i.e. energy transfer) is inversely proportional to the concentration of cAMP in either a standard or an experimental sample.
The human GLP-1R coding sequence (NCBI Reference Sequence NP_002053.3, including naturally-occurring variant Leu260Phe) was subcloned into pcDNA5-FRT-TO and a clonal CHO cell line stably expressing a low receptor density was isolated using the Flp-In™ T-Rex™ System, as described by the manufacturer (ThermoFisher).
Cells were removed from cryopreservation, re-suspended in 40 mL of Dulbecco's Phosphate Buffered Saline (DPBS—Lonza Cat #17-512Q) and centrifuged at 800×g for 5 minutes at 22° C. The DPBS was aspirated, and the cell pellet was re-suspended in 10 mL of complete growth medium (DMEM:F12 1:1 Mixture with HEPES, L-Gln, 500 mL (DMEM/F12 Lonza Cat #12-719F), 10% heat inactivated fetal bovine serum (Gibco Cat #16140-071), 5 mL of 100× Pen-Strep (Gibco Cat #15140-122), 5 mL of 100× L-Glutamine (Gibco Cat #25030-081), 700 μg/mL Hygromycin (Invitrogen Cat #10687010) and 15 μg/mL Blasticidin (Gibco Cat #R21001). A 1 mL sample of the cell suspension in growth media was counted on a Becton Dickinson ViCell to determine cell viability and cell count per mL. The remaining cell suspension was then adjusted with growth media to deliver 1600 viable cells per well using a Matrix Combi Multidrop reagent dispenser, and the cells were dispensed into a white 384 well tissue culture treated assay plate (Corning 3570). The assay plate was then incubated for 48 hours at 37° C. in a humidified environment (95% O2, 5% CO2)
Varying concentrations of each compound to be tested (in DMSO) were diluted in assay buffer [HBSS with Calcium/Magnesium (Lonza/BioWhittaker cat #10-527F)/0.1% BSA (Sigma Aldrich cat #A7409-1L)/20 mM HEPES (Lonza/BioWhittaker cat #17-737E)] containing 100 μM 3-isobutyl-1-methylxanthin (IBMX; Sigma cat #15879). The final DMSO concentration in the compound/assay buffer mixture is 1%.
After 48 hours, the growth media was removed from the assay plate wells, and the cells were treated with 20 μL of the serially diluted compound in assay buffer for 30 minutes at 37° C. in a humidified environment (95% O2, 5% CO2). Following the 30 minute incubation, 10 μL of labeled d2 cAMP and 10 μL of anti-cAMP antibody (both diluted 1:20 in cell lysis buffer; as described in the manufacturer's assay protocol) were added to each well of the assay plate. The plates were then incubated at room temperature and after 60 minutes, changes in the HTRF signal were read with an Envision 2104 multi-label plate reader using excitation of 330 nm and emissions of 615 and 665 nm. Raw data were converted to nM cAMP by interpolation from a cAMP standard curve (as described in the manufacturer's assay protocol) and the percent effect was determined relative to a saturating concentration of the full agonist GLP-1 (1 μM) included on each plate. EC50 determinations were made from agonist dose response curves analyzed with a curve fitting program using a 4-parameter logistic dose response equation.

## C[C@]1(c2ccc(Cl)cn2)Oc2cccc(C3CCNCC3)c2O1 [Metabolite 331]
[1]; human co-cultured hepatocytes (Hepatopack), HPLC/UV/MS
  Relative abundance of metabolite of Compound 2, Hepatopack: trace
[2]
  metabolite of Compound 2 observed in rabbit hepatocyte incubations: observed in all hepatocyte incubations
[2]; rabbit cryopreserved hepatocytes, HPLC/UV/MS
  Relative abundance of metabolite of Compound 2, Rabbit: trace
[3]
  metabolite of Compound 2 observed in mouse hepatocyte incubations: observed in all hepatocyte incubations
[3]; mouse cryopreserved hepatocytes, HPLC/UV/MS
  Relative abundance of metabolite of Compound 2, Mouse: +

## C[C@]1(c2ccc(Cl)cn2)Oc2cccc(C3CCN(Cc4nc5ccc(C(=O)O[C@@H]6O[C@H](C(=O)O)[C@@H](O)[C@H](O)[C@H]6O)cc5n4C[C@@H]4CCO4)CC3)c2O1 [Metabolite 751b]
[4]
  Emax: 68%
[1]; Compound 2 tris salt 20 μM, up to 7 days
  abundance of metabolite of Compound 2 in human Hepatopack system: most abundant metabolites
[2]
  metabolite of Compound 2 observed in rabbit hepatocyte incubations: observed in all hepatocyte incubations
[3]
  metabolite of Compound 2 observed in mouse hepatocyte incubations: observed in all hepatocyte incubations
